The subject of one test is NK1.1+CD3- NK cells. The test can be described thus: NK cell compartment in spleens of treated mice. The class given is in vivo, mouse. The settings on record: mice treated daily for 6 days, spleen on day 7. On the procedure: Mice were treated daily for 6 days with either NSC13480, vehicle alone (Vehicle) or were non-manipulated (Normal). On the 7th day the spleens of the mice were analyzed for NK cell content (NK1.1+CD3− cells) and for expression of the MHC-I inhibitory receptor Ly49G2.
SHIP-deficiency expands the peripheral NK compartment and disrupts the repertoire of receptors elaborated by NK cells that recognize MHC-I ligands. The NK cell compartment was examined in NSC13480-treated mice to determine if inhibition of SHIP enzymatic activity in vivo could also lead to similar disruptions in the NK cell compartment. […] Ly49G2 is an MHC-I inhibitory receptor shown to be under-represented in SHIP^−/− mice.
(§1) Antibody staining and flow cytometry (Examples 1-6): Anti-CD16/32 was co-incubated with the samples to block Fc receptor binding. Antibodies used for staining included: NK1.1 (PK136); CD3e (145-2C11); Ly49G2 (4D11); Gr-1 (RB6-8C5); Mac-1(M1/70); CD11c (HL3); CD4 (GK1.5); CD25 (PC61) and were obtained from BD Pharmingen (San Jose, Calif.). FoxP3 (FJK-16s) was purchased from eBioScience (San Diego, Calif.). All samples were acquired on a FACSCalibur and analyzed using FlowJo8.7.1. For viable staining, dead cells were excluded from the analysis following cytometer acquisition of data by exclusion of the 7AAD dye. […]

Test [1] relates to FoxP3+CD4+CD25+ Treg cells. As to the kind of experiment: FACS quantitation of FoxP3+CD4+CD25+ Treg cells in spleen and lymph node of treated mice. The class given is in vivo, mouse. The following applies: daily injection at 125 μM for 7 days. As to the method:
FACS quantitation of Mac1^+Gr1^+ Myeloid-Derived Suppressor Cells (Mac1^+Gr1^+ MySC) (A,B) and FoxP3^+CD4^+CD25^+ Treg cells (C,D) in spleen and lymph node of C57BL6 mice treated with NSC13480, vehicle or non-manipulated mice (Normal). ***p<0.001; *p<0.05.
In addition, both donor and host Treg cells can also limit or abrogate GvHD. […] (Paraiso, K. H., et al. 2007. J Immunol 178:2893). […] Adult mice were treated for 7 days with a daily injection of NSC13480 at 125 μM. The frequency of MySC and Treg cells was tested in the spleens of mice treated with NSC13480, the vehicle used for delivery of NSC 13480 and normal, untreated mice.
as §1

The test system of test [2] is human multiple myeloma cell lines OPM and RPMI. The test can be described thus: Apoptosis (annexin positive cells) in multiple myeloma cell lines. The class given is cell-based. The settings on record: increasing concentrations. The source says: (§2) (A) SHIP1 expression in human multiple myeloma (MM) cell lines as presented in the western blot analysis. SHIP is expressed in the human multiple myeloma cell lines U266, RPMI8226 and OPM2. The expression in the MM cell lines is shown relative to that observed in MG63 and HS-5 cell lines. MG63 is an osteosarcoma cell line, and HS-5 is a human bone marrow stroma cell line. […] Actin is provided as a control. (B) Results of MTT dye assays of MM cell lines. […] RUO is “relative units optical”. (C) Apoptosis in OPM and RPMI cell lines at increasing concentrations of 3α-aminocholestane.

The test system of test [3] is human multiple myeloma cell lines U266, RPMI8226 and OPM2. As to the kind of experiment: MTT dye assay of multiple myeloma cell lines. The following applies: increasing concentrations. Format: cell-based.
Description: as §2
On the technique in general: Formazan colour is commonly taken as a measure of viable cells.

Another test has as its system KG-1 AML cells. As to the kind of experiment: MTT cell viability assay, KG1. The following applies: KG-1, expresses SHIP1, 36 hours. The class given is cell-based, human. On the procedure: (A) SHIP1 expression in KG1 and MG63 cells was determined by Western blotting (top). Membranes were reprobed with antibodies against b-actin to confirm equal loading (lower panel). One representative blot of 2 individual experiments is shown. (B) KG1 and MG63 cells were plated in duplicate in 96 well plates, and treated for 36 hours with increasing concentrations of the 3α-aminocholestane. Cell viability was assessed by MTT assay. Results represent the mean of three individual experiments. (C) KG1 cells were treated with increasing concentrations of 3α-aminocholestane for 36 hours and hallmarks of apoptosis were identified in cell lysates by Western Blot analysis. […] (D) KG1 cells were treated with increasing concentrations of 3α-aminocholestane, and the percentage of AnnexinV and PI positive cells was determined by FACS analysis. […]
Cell viability assay: Cells were treated in duplicate for 36 hours with increasing concentrations of 3α-aminocholestane or vehicle. […] Formed crystals were dissolved in dimethyl sulfoxide and optical density (OD) was measured at 570 nm. The OD of compound treated cells was divided by the OD of their vehicle control, and the viability was expressed as a percentage of untreated cells. Results are expressed as mean±SEM of three individual experiments.

On to `OC(c1cc(-c2ccccc2)nc2c1ccc1ccccc12)C1CCCCN1` (stereo not shown) [NSC13480, (2-phenylbenzo[h]quinolin-4-yl)-piperidin-2-ylmethanol], for which, in the test with NK1.1+CD3- NK cells, the “frequency of Ly49G2+ NK cells” value was “much reduced frequency” and the “splenic NK cell numbers” value is “significant increase”. Further, the “number of Treg cells” value in test [1] (lymph node) is on record as “increased significantly”. In addition, the “number of Treg cells” value in test [1] (spleen) is “increased significantly”.
Take `CC(C)CCC[C@@H](C)[C@H]1CC[C@H]2[C@@H]3CC[C@H]4C[C@H](N)CC[C@]4(C)[C@H]3CC[C@]12C` [NSC23922, (3R,5S,8R,9S,10S,13R,14S,17R)-10,13-dimethyl-17-[(2R)-6-methylheptan-2-yl]-2,3,4,5,6,7,8,9,11,12,14,15,16,17-tetradecahydro-1H-cyclopenta[a]phenanthren-3-amine]: the “apoptosis (percent annexin positive cells)” value in test [2] is “apoptosis occurs”. Moreover, the “viability of multiple myeloma cell lines” value in test [3] is “decrease in viability”. Also, the “growth and survival of cells (MTT viability)” value in the test on KG-1 AML cells was “decreases the growth and survival”.

Source of the values: US9006221B2, “Method of modulating ship activity” (H. Lee Moffitt Cancer Center and Reserach Institute, Inc., priority 2008, dated 2015).
